Test results published in the NIST ThermoML archive (doi:10.1016/j.fluid.2016.02.031).

Assay: xn = mol fraction of the nth substance listed
Conditions: 100 kPa, Liquid; for viscosity: Concentric cylinders viscometry; for mass density: Vibrating tube method

c1ccncc1 [pyridine] + CCC(C)=O
Conditions	mass density [kg/m3]	viscosity [mPa·s]
288.15 K, x1 = 0.1006	827.262	0.4555
288.15 K, x1 = 0.2019	844.704	0.4928
288.15 K, x1 = 0.3002	861.833	0.5309
288.15 K, x1 = 0.4004	879.307	0.5771
288.15 K, x1 = 0.4999	896.875	0.629
288.15 K, x1 = 0.597	914.2	0.6859
288.15 K, x1 = 0.6998	932.635	0.7603
288.15 K, x1 = 0.7945	949.796	0.8375
288.15 K, x1 = 0.8962	968.632	0.9269
288.15 K, x1 = 1	988.077	1.053
293.15 K, x1 = 0.1006	822.086	0.4381
293.15 K, x1 = 0.2019	839.557	0.4718
293.15 K, x1 = 0.3002	856.714	0.5088
293.15 K, x1 = 0.4004	874.211	0.5501
293.15 K, x1 = 0.4999	891.802	0.5983
293.15 K, x1 = 0.597	909.146	0.6505
293.15 K, x1 = 0.6998	927.59	0.7177
293.15 K, x1 = 0.7945	944.768	0.7876
293.15 K, x1 = 0.8962	963.61	0.8683
293.15 K, x1 = 1	983.053	0.9801
298.15 K, x1 = 0.1006	816.889	0.4203
298.15 K, x1 = 0.2019	834.388	0.4516
298.15 K, x1 = 0.3002	851.571	0.4867
298.15 K, x1 = 0.4004	869.094	0.5243
298.15 K, x1 = 0.4999	886.708	0.5689
298.15 K, x1 = 0.597	904.074	0.6164
298.15 K, x1 = 0.6998	922.541	0.6779
298.15 K, x1 = 0.7945	939.726	0.7418
298.15 K, x1 = 0.8962	958.58	0.8147
298.15 K, x1 = 1	978.02	0.9155
303.15 K, x1 = 0.1006	811.664	0.4019
303.15 K, x1 = 0.2019	829.195	0.4317
303.15 K, x1 = 0.3002	846.407	0.4649
303.15 K, x1 = 0.4004	863.96	0.5
303.15 K, x1 = 0.4999	881.597	0.5409
303.15 K, x1 = 0.597	898.986	0.5851
303.15 K, x1 = 0.6998	917.474	0.6402
303.15 K, x1 = 0.7945	934.676	0.6995
303.15 K, x1 = 0.8962	953.536	0.7669
303.15 K, x1 = 1	972.979	0.8568
308.15 K, x1 = 0.1006	806.406	0.3835
308.15 K, x1 = 0.2019	823.972	0.4117
308.15 K, x1 = 0.3002	841.216	0.4432
308.15 K, x1 = 0.4004	858.797	0.4758
308.15 K, x1 = 0.4999	876.465	0.5142
308.15 K, x1 = 0.597	893.873	0.555
308.15 K, x1 = 0.6998	912.381	0.6063
308.15 K, x1 = 0.7945	929.606	0.6588
308.15 K, x1 = 0.8962	948.477	0.7219
308.15 K, x1 = 1	967.923	0.8032
313.15 K, x1 = 0.1006	801.119	0.3653
313.15 K, x1 = 0.2019	818.72	0.392
313.15 K, x1 = 0.3002	835.996	0.4219
313.15 K, x1 = 0.4004	853.612	0.4528
313.15 K, x1 = 0.4999	871.309	0.4887
313.15 K, x1 = 0.597	888.742	0.5265
313.15 K, x1 = 0.6998	907.282	0.5741
313.15 K, x1 = 0.7945	924.517	0.6226
313.15 K, x1 = 0.8962	943.403	0.6809
313.15 K, x1 = 1	962.857	0.7546
318.15 K, x1 = 0.1006	795.798	0.3502
318.15 K, x1 = 0.2019	813.436	0.3728
318.15 K, x1 = 0.3002	830.749	0.401
318.15 K, x1 = 0.4004	848.397	0.4308
318.15 K, x1 = 0.4999	866.128	0.4642
318.15 K, x1 = 0.597	883.587	0.4996
318.15 K, x1 = 0.6998	902.151	0.544
318.15 K, x1 = 0.7945	919.408	0.5893
318.15 K, x1 = 0.8962	938.312	0.6417
318.15 K, x1 = 1	957.777	0.7103
323.15 K, x1 = 0.1006	790.436	0.3328
323.15 K, x1 = 0.2019	808.12	0.3539
323.15 K, x1 = 0.3002	825.467	0.3807
323.15 K, x1 = 0.4004	843.151	0.4095
323.15 K, x1 = 0.4999	860.918	0.4409
323.15 K, x1 = 0.597	878.406	0.4742
323.15 K, x1 = 0.6998	896.999	0.5159
323.15 K, x1 = 0.7945	914.28	0.5586
323.15 K, x1 = 0.8962	933.202	0.6072
323.15 K, x1 = 1	952.682	0.6698
328.15 K, x1 = 0.1006	785.039	0.3157
328.15 K, x1 = 0.2019	802.762	0.3354
328.15 K, x1 = 0.3002	820.152	0.361
328.15 K, x1 = 0.4004	837.875	0.3888
328.15 K, x1 = 0.4999	855.68	0.4185
328.15 K, x1 = 0.597	873.198	0.4502
328.15 K, x1 = 0.6998	891.821	0.4899
328.15 K, x1 = 0.7945	909.127	0.5297
328.15 K, x1 = 0.8962	928.07	0.5771
328.15 K, x1 = 1	947.564	0.6329
333.15 K, x1 = 0.1006	779.596	0.2989
333.15 K, x1 = 0.2019	797.367	0.3189
333.15 K, x1 = 0.3002	814.798	0.3422
333.15 K, x1 = 0.4004	832.563	0.3696
333.15 K, x1 = 0.4999	850.405	0.3985
333.15 K, x1 = 0.597	867.959	0.4291
333.15 K, x1 = 0.6998	886.618	0.4668
333.15 K, x1 = 0.7945	903.947	0.5039
333.15 K, x1 = 0.8962	922.92	0.549
333.15 K, x1 = 1	942.433	0.5997
